In PubChem BioAssay (NCI):
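Briefly, cells in 96-well plates were exposed to five compound concentrations for 48 h, and endpoints were estimated by linear interpolation. The concentration for full growth arrest is given as TGI.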

How the values were obtained:
Test in all cases: growth of human tumour cells (NCI), 48 h
UACC-257 melanoma = test system: UACC-257 melanoma
XF 498 CNS = test system: XF 498 CNS
SF-268 CNS = test system: SF-268 CNS
RXF 393 renal = test system: RXF 393 renal
SK-MEL-2 melanoma = test system: SK-MEL-2 melanoma
OVCAR-8 ovarian = test system: OVCAR-8 ovarian
SF-295 CNS = test system: SF-295 CNS
786-0 renal = test system: 786-0 renal
KM12 colon = test system: KM12 colon
KM20L2 colon = test system: KM20L2 colon
OVCAR-3 ovarian = test system: OVCAR-3 ovarian
U251 CNS = test system: U251 CNS
HCT-15 colon = test system: HCT-15 colon
MOLT-4 leukemia = test system: MOLT-4 leukemia
SK-OV-3 ovarian = test system: SK-OV-3 ovarian
SK-MEL-5 melanoma = test system: SK-MEL-5 melanoma
SK-MEL-28 melanoma = test system: SK-MEL-28 melanoma
TK-10 renal = test system: TK-10 renal
SN12C renal = test system: SN12C renal
OVCAR-5 ovarian = test system: OVCAR-5 ovarian
A498 renal = test system: A498 renal
HOP-18 NSCLC = test system: HOP-18 NSCLC
RXF-631 renal = test system: RXF-631 renal
DMS 273 small cell lung = test system: DMS 273 small cell lung
SNB-19 CNS = test system: SNB-19 CNS
COLO 205 colon = test system: COLO 205 colon
NCI-H23 lung = test system: NCI-H23 lung
HCT-116 colon = test system: HCT-116 colon
HCC-2998 colon = test system: HCC-2998 colon
UACC-62 melanoma = test system: UACC-62 melanoma
HOP-62 NSCLC = test system: HOP-62 NSCLC
A549 NSCLC = test system: A549 NSCLC
NCI-H460 lung = test system: NCI-H460 lung
M19-MEL melanoma = test system: M19-MEL melanoma
SNB-78 CNS = test system: SNB-78 CNS
K-562 leukemia = test system: K-562 leukemia
MALME-3M melanoma = test system: MALME-3M melanoma
EKVX NSCLC = test system: EKVX NSCLC
RPMI-8226 leukemia = test system: RPMI-8226 leukemia
SW-620 colon = test system: SW-620 colon
SF-539 CNS = test system: SF-539 CNS
OVCAR-4 ovarian = test system: OVCAR-4 ovarian
IGROV1 ovarian = test system: IGROV1 ovarian
DMS 114 small cell lung = test system: DMS 114 small cell lung
DLD-1 colon = test system: DLD-1 colon
HT29 colon = test system: HT29 colon
ACHN renal = test system: ACHN renal
HOP-92 NSCLC = test system: HOP-92 NSCLC
HL-60(TB) leukemia = test system: HL-60(TB) leukemia
LOX IMVI melanoma = test system: LOX IMVI melanoma
SR leukemia = test system: SR leukemia
M14 melanoma = test system: M14 melanoma
SNB-75 CNS = test system: SNB-75 CNS
CCRF-CEM leukemia = test system: CCRF-CEM leukemia
LXFL 529 NSCLC = test system: LXFL 529 NSCLC
UO-31 renal = test system: UO-31 renal
CAKI-1 renal = test system: CAKI-1 renal
NCI-H522 lung = test system: NCI-H522 lung
NCI-H226 lung = test system: NCI-H226 lung

For `N#CC1(Cc2ccccc2)CCCCN1C(=O)c1ccccc1` (configuration not stated), the TGI (UACC-257 melanoma) was > 100 µM, the TGI (XF 498 CNS) was > 100 µM and the TGI (SF-268 CNS) was > 100 µM. The TGI (RXF 393 renal) was > 100 µM, the TGI (SK-MEL-2 melanoma) was 9.11 µM and the TGI (OVCAR-8 ovarian) was > 100 µM. For the same compound, the TGI (SF-295 CNS) was > 100 µM, the TGI (786-0 renal) was > 100 µM and the TGI (KM12 colon) was > 100 µM. For the same compound, the TGI (KM20L2 colon) was > 100 µM, the TGI (OVCAR-3 ovarian) was > 100 µM and the TGI (U251 CNS) was > 100 µM. For the same compound, the TGI (HCT-15 colon) was > 100 µM, the TGI (MOLT-4 leukemia) was > 100 µM and the TGI (SK-OV-3 ovarian) was > 100 µM. The TGI (SK-MEL-5 melanoma) was > 100 µM, the TGI (SK-MEL-28 melanoma) was > 100 µM and the TGI (TK-10 renal) was > 100 µM. The TGI (SN12C renal) was > 100 µM, the TGI (OVCAR-5 ovarian) was > 100 µM and the TGI (A498 renal) was > 100 µM. The TGI (HOP-18 NSCLC) was > 100 µM, the TGI (RXF-631 renal) was > 100 µM and the TGI (DMS 273 small cell lung) was > 100 µM. For the same compound, the TGI (SNB-19 CNS) was > 100 µM, the TGI (COLO 205 colon) was > 100 µM and the TGI (NCI-H23 lung) was > 100 µM. For the same compound, the TGI (HCT-116 colon) was > 100 µM, the TGI (HCC-2998 colon) was > 100 µM and the TGI (UACC-62 melanoma) was > 100 µM. The TGI (HOP-62 NSCLC) was > 100 µM, the TGI (A549 NSCLC) was > 100 µM and the TGI (NCI-H460 lung) was > 100 µM. For the same compound, the TGI (M19-MEL melanoma) was > 100 µM, the TGI (SNB-78 CNS) was > 100 µM and the TGI (K-562 leukemia) was > 100 µM. The TGI (MALME-3M melanoma) was > 100 µM, the TGI (EKVX NSCLC) was > 100 µM and the TGI (RPMI-8226 leukemia) was > 100 µM. For the same compound, the TGI (SW-620 colon) was > 100 µM, the TGI (SF-539 CNS) was > 100 µM and the TGI (OVCAR-4 ovarian) was > 100 µM. The TGI (IGROV1 ovarian) was > 100 µM, the TGI (DMS 114 small cell lung) was > 100 µM and the TGI (DLD-1 colon) was > 100 µM. For the same compound, the TGI (HT29 colon) was > 100 µM, the TGI (ACHN renal) was > 100 µM and the TGI (HOP-92 NSCLC) was > 100 µM. For the same compound, the TGI (HL-60(TB) leukemia) was > 100 µM, the TGI (LOX IMVI melanoma) was > 100 µM and the TGI (SR leukemia) was > 100 µM. For the same compound, the TGI (M14 melanoma) was > 100 µM, the TGI (SNB-75 CNS) was > 100 µM and the TGI (CCRF-CEM leukemia) was > 100 µM. The TGI (LXFL 529 NSCLC) was > 100 µM and the TGI (UO-31 renal) was > 100 µM.
`NC(=Nc1ccc(S(=O)(=O)Nc2cnc3ccccc3n2)cc1)/N=C(/N)Nc1ccc(Br)cc1` was tested, and the TGI (UACC-257 melanoma) was > 100 µM, the TGI (XF 498 CNS) was > 100 µM and the TGI (SF-268 CNS) was > 100 µM. The TGI (SK-MEL-2 melanoma) was > 100 µM, the TGI (OVCAR-8 ovarian) was > 100 µM and the TGI (SF-295 CNS) was > 100 µM. For the same compound, the TGI (786-0 renal) was > 100 µM, the TGI (KM12 colon) was > 100 µM and the TGI (CAKI-1 renal) was > 100 µM. For the same compound, the TGI (KM20L2 colon) was > 100 µM, the TGI (OVCAR-3 ovarian) was > 100 µM and the TGI (U251 CNS) was > 100 µM. The TGI (HCT-15 colon) was > 100 µM, the TGI (MOLT-4 leukemia) was > 100 µM and the TGI (SK-OV-3 ovarian) was > 100 µM. The TGI (SK-MEL-5 melanoma) was > 100 µM, the TGI (SK-MEL-28 melanoma) was > 100 µM and the TGI (TK-10 renal) was > 100 µM. For the same compound, the TGI (SN12C renal) was > 100 µM, the TGI (OVCAR-5 ovarian) was > 100 µM and the TGI (A498 renal) was > 100 µM. The TGI (HOP-18 NSCLC) was > 100 µM, the TGI (RXF-631 renal) was > 100 µM and the TGI (DMS 273 small cell lung) was > 100 µM. For the same compound, the TGI (SNB-19 CNS) was > 100 µM, the TGI (NCI-H522 lung) was > 100 µM and the TGI (COLO 205 colon) was > 100 µM. For the same compound, the TGI (NCI-H23 lung) was > 100 µM, the TGI (HCC-2998 colon) was > 100 µM and the TGI (UACC-62 melanoma) was > 100 µM. The TGI (HOP-62 NSCLC) was > 100 µM, the TGI (A549 NSCLC) was > 100 µM and the TGI (NCI-H460 lung) was > 100 µM. The TGI (NCI-H226 lung) was > 100 µM, the TGI (M19-MEL melanoma) was > 100 µM and the TGI (SNB-78 CNS) was > 100 µM. For the same compound, the TGI (K-562 leukemia) was > 100 µM, the TGI (MALME-3M melanoma) was > 100 µM and the TGI (EKVX NSCLC) was > 100 µM. For the same compound, the TGI (RPMI-8226 leukemia) was > 100 µM, the TGI (SW-620 colon) was > 100 µM and the TGI (SF-539 CNS) was > 100 µM. For the same compound, the TGI (OVCAR-4 ovarian) was > 100 µM, the TGI (IGROV1 ovarian) was > 100 µM and the TGI (DMS 114 small cell lung) was > 100 µM. For the same compound, the TGI (DLD-1 colon) was > 100 µM, the TGI (HT29 colon) was > 100 µM and the TGI (ACHN renal) was > 100 µM. The TGI (HOP-92 NSCLC) was > 100 µM, the TGI (LOX IMVI melanoma) was > 100 µM and the TGI (SR leukemia) was > 100 µM. The TGI (M14 melanoma) was > 100 µM, the TGI (SNB-75 CNS) was > 100 µM and the TGI (CCRF-CEM leukemia) was > 100 µM. The TGI (LXFL 529 NSCLC) was > 100 µM and the TGI (UO-31 renal) was > 100 µM.
